What was measured:
RAW 264.7 cells [1] = experiment: s-Nitrosothiol accumulation in RAW 264.7 cells, biotin switch assay; assay type: cell-based, rat
Procedure: Referring now to FIG. 4, RAW 264.7 cells were cultured in DMEM containing 10% heat-inactivated serum. Cells were treated with 33 μM of Compound 8 for 0, 2, 4, 8, or 24 h alone or in combination with 1 mM NAME for 4 h (lane 4+N). At indicated times, the cells were quenched and the lysate was analyzed for s-nitrosothiol content by the biotin switch assay.
RAW 264.7 cells were cultured in 10% heat-inactivated serum containing DMEM. Cells were treated with 33 micromolar compound 8 for varied lengths of time alone or in combination with 1 mM NAME for 4 h (4+N). […] Briefly, free sulfydryls in ˜200 μg of cell lysate were blocked with 20 mM MMTS in 1 ml of HEN buffer (250 mM HEPES pH 7.7 containing 1 mM EDTA and 0.1 mM Neocupronine) containing 2% SDS at 50° C. for 20 min. Free MMTS was removed by gel-filtration spin columns and the blocked proteins were labeled with 1 mM Biotin-HPDP (Pierce) in presence or absence of 30 mM ascorbate and 2 μM CuCl for 2.5 hours.

RAW 264.7 cells [2] = experiment: cGMP accumulation in RAW 264.7 cells; assay type: cell-based, rat; details: 50 μM GSNO, 10 minutes
Procedure: cGMP plays key roles in vascular biology. To test whether inhibition of GSNOR increases cGMP production, RAW 264.7 cells were incubated with 50 μM GSNO±, both with and without compound 8, one of the subject GSNOR inhibitors of this invention. Next the amount of cGMP accumulation after 10 minutes was measured. Referring now to FIG. 6, GSNO activates soluble Guanylate Cyclase as previously described (Mayer et al J Biol Chem, Vol. 273, Issue 6, 3264-3270, Feb. 6, 1998). Compound 8 (GSNORi in the figure) potentiates the effect of GSNO by 2.5 fold.
Referring now to FIG. 6, RAW 264.7 cells were incubated with 50 μM GSNO±compound 8 the subject GSNOR inhibitor of this invention and then measured the amount of cGMP accumulation after 10 minutes. As shown in the figure GSNO activates soluble Guanylate Cyclase as previously described (Mayer et al J Biol Chem, Vol. 273, Issue 6, 3264-3270, Feb. 6, 1998). One mechanism by which compound 8 exerts its biochemical effects is due to its inhibition of GSNOR, which then potentiates the effects of GSNO on cGMP production resulting in higher cGMP levels.

GSNOR [3] = biological target: T1, GSNOR (Homo sapiens, UniProt P11766); experiment: GSNOR inhibition at pH 10 (octanol, NAD+); assay type: biochemical; set-up: made in house; host or cells: E. coli; details: pH 10 versus pH 7.5
Procedure: Referring now to Table 1, inhibition was studied at pH 10. These assays were performed in 0.1 M sodium glycine containing 1 mM octanol, 1 mM NAD^+, 0.1 mM EDTA and 50 μM inhibitor. Inhibition studies at pH 7.5 were performed in 50 mM potassium phosphate pH 7.5 that included 15 μM NADH, 10 μM GSNO, 0.1 mM EDTA and 50 μM inhibitor. The data file to a model consisted with partial inhibition and a hill coefficient of 2.4 in the inhibition curve. The screening for GSNOR inhibitors was performed using a library of 60,000 compounds from ChemDiv Inc in the Chemical Genomics Core facility at Indiana University. Screening was conducted in 384 well plates and involved incubating GSNOR with 12.5 μM compound, 1 mM each of NAD^+ and octanol in 0.1 M sodium glycine pH 10. Enzyme activity was determined by measuring the rate of production of NADH spectrophotometrically at 340 nm. Inhibition of GSNOR was calculated from the ratio of enzyme activity in the presence of compounds to that in no compound controls performed on the same assay plate. Following their identification from the high-throughput screening, the GSNOR inhibitory properties of the initial hits were confirmed at the pH 10 using 12-hydroxydodecanoic acid as the substrate and at pH 7.5 using GSNO as the substrate (see the brief description of Table 1 for details on how the assay was carried out.)

GSNOR [4] = biological target: T1, GSNOR; experiment: Dead-end inhibition studies of GSNOR; assay type: biochemical; set-up: made in house; host or cells: E. coli; details: pH 7.5, 25° C., GSNO held at 10 μM
Procedure: Referring now to Table 3, inhibition experiments were performed at 25° C. in 50 mM potassium phosphate (pH 7.5) including 0.1 mM EDTA. A minimum of five concentrations of the varied substrate and three inhibitor concentrations were used for each experiment. NADH and GSNO concentrations were held at 15 or 10 μM, respectively when present as a constant substrate in the assay. The Kis and Kii values are respectively the slope and intercept inhibition constants and are listed along with their associated standard errors. All data were fit to a competitive (C), noncompetitive (NC), or uncompetitive (UC) inhibition models. The type of inhibition shown in the table represents the best fit of the data to the given model as judged from F statistics analysis. […] The dissociation constant was measured at 25° C. in 50 mM potassium phosphate pH 7.5. Each KD value is an average of three independent experiments and is shown with the associated standard error.
Inhibition experiments with the GSNOR inhibitors were conducted at 25° C. in 3 ml of 50 mM potassium phosphate (pH 7.5) containing 0.1 mM EDTA. […] A minimum of three inhibitor concentrations were used in these assays and the rate of NADH and GSNO consumption was determined spectrophotometrically by following change in absorbance at 340 nm. […]

T1 sequence (P11766 2-374 limits assumed): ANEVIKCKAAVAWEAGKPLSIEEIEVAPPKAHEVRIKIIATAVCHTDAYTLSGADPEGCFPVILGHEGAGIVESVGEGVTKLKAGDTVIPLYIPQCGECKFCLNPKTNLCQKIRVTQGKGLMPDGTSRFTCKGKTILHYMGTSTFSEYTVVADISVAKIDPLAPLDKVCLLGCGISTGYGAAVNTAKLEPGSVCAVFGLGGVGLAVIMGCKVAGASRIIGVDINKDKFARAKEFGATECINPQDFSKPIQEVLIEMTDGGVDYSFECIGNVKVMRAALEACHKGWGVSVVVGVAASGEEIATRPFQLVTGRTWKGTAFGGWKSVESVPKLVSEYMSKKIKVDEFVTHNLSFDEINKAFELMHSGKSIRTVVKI

type of inhibition against varied NADH (GSNOR [4]): uncompetitive
SMILES: N#Cc1ccccc1CSc1nc2ccsc2c(=O)n1Cc1ccc(C(=O)O)cc1 [Compound 8]
time of peak effect on nitrosylation of cellular proteins (RAW 264.7 cells [1]; 33 μM): around 8 hours
time to decrease to normal nitrosylation levels (RAW 264.7 cells [1]; 33 μM): ≤ 24 h
accumulation of SNOs with simultaneous L-NAME (RAW 264.7 cells [1]; 33 μM compound 8 + 1 mM NAME, 4 h): less
nitrosylation of cellular proteins (RAW 264.7 cells [1]; 33 μM, 0-24 h): increased the nitrosylation of cellular proteins with time
potentiation of the effect of GSNO on cGMP (RAW 264.7 cells [2]): 2.5 fold
GSNOR inhibition at pH 10 compared with pH 7.5 (GSNOR [3]): higher GSNOR inhibition at pH 10 than at pH 7.5

Reference: patent publication US9198909B1, “Materials and methods for inhibiting mamalian S-nitrosoglutathione reductase” (Indiana University Research and Technology Corporation, priority 2007, dated 2015)
